# Laboratory results taken from patent US8445517B2, “Stat modulators” (Dana-Farber Cancer Institute, priority 2009, dated 2013).
# Entries after “also recorded” stand apart in the source; their conditions may differ. Counter-ions that a name gives are not always drawn.
# Key:
# [1] = test system: Stat3; assay: Stat3 luciferase reporter cell assay (U3A cells, IL-6 stimulated); type: cell-based; conditions: for inhibition of Stat3 activity in validation studies: compounds tested individually, dose responses analyzed, selective versus NF-κB; for Stat3-dependent luciferase activity, primary screen: library screen in 384-well plates, IL-6 stimulated; for enhancement of Stat3 function: Stat3-dependent luciferase screen; for induction of luciferase in the Stat3 reporter system: cytokine treatment, test of reporter specificity
# Description: A cell-based assay system for each Stat1, Stat3 and Stat5 was developed to identify compounds that modulate the respective Stat activity. Although the details for each system are slightly different, as described below, the basic principle are the same. Appropriate cell lines (NIH3T3 for Stat1, U3A for Stat3, and T47D for Stat5) were transfected with a plasmid containing a luciferase reporter gene under the control of a promoter responsive to the indicated Stat, e.g., Stat1, Stat3 or Stat5, as well as a neomycin phosphotransferase cassette (BRIGHT GLO Luciferase Assay Kit available from Promega (Madison, Wis.). The reporter plasmid used in the Stat1 and Stat3 cell lines is described in Lynch et al., Cancer Research, 67:1254-61 (2007), which is herein incorporated by reference in its entirety. The nuclic acid binding sequence of Stat5 use in the reporter plasmid is denoted as region B in Walker et al., Oncogene, 26:224-233 (2007), which is herein incorporated by reference in its entirety.
# Cells were selected in geneticin (G418) to isolate clones that had stably integrated the plasmid. Individual clones were isolated and luciferase expression was measured by luminometry in the presence and absence of a stimulator of the specific Stat of interest. Clones having a low basal luciferase expression, prominent induction by a specific stimulus (IFN-γ for Stat1, (IL)-6 for Stat3 and prolactin for Stat5), no induction with an irrelevant stimulus, and stable properties after prolonged cell culture or cryopreservation and thawing were selected. […] Several of these cell lines for each Stat construct were deposited with American Type Culture Collection of Manassas, Va. For example, cell lines having the Stat1 inducible promoter were deposited under ATCC Nos. Cell lines having the Stat3 inducible promoter were deposited under ATCC Nos. Cell lines having the Stat5 inducible promoter were deposited under ATCC numbers Nos.
# To ensure the specificity of the reporter systems, the Stat3 reporter cell line and the NF-κB reporter system were compared. Each cell type was either untreated, treated with IL-6 (which activates Stat3 in both systems) or treated with TNF-α (which activates NF-κB in both).
# All three cell-based screening systems were adapted for use in 384-well plates, which were then used to screen a library of 1120 compounds (the Prestwick Myeloma Collection available from Prestwick Chemical, Illkirch, France). […] Briefly, 2,500 cells are plated per well in 30 μl of medium in a 384 well plate and grown in Dulbecco's modified Eagle's medium (DMEM) supplemented with 10% fetal calf serum in an incubator with a 95% air/5% CO2 atmosphere at 37° C. After a 16 hour incubation to allow cells to adhere, 100 nl of the test compound is added per well and incubated for one hour, after which the activating cytokine (IFN-γ, IL-6, and prolactin, respectively) are added to each well in 10 μl of medium. After 6 hours, 40 μl of 0.5× Bright-Glo luciferase substrate (diluted in PBS) is added, and luciferase activity is quantitated on a Luminoskan luminometer (Helsinki, Finland).
# [2] = test system: NF-κB; assay: NF-κB luciferase reporter cell assay (293T cells, TNF-α stimulated); type: cell-based; conditions: for NF-κB activity, primary screen: NF-κB luciferase reporter, control for non-specific effects; for induction of luciferase in the NF-κB reporter cells: cytokine treatment, test of reporter specificity
# Protocol: A parallel system was also developed in which luciferase was under the control of the transcription factor NF-κB (cell lines deposited on under ATCC Nos.). When these 293T cells are treated with tumor necrosis factor (TNF)-α, they show prominent induction of luciferase. This provided an independent control to exclude non-specific effects.
# To ensure the specificity of the reporter systems, the Stat3 reporter cell line and the NF-κB reporter system were compared. Each cell type was either untreated, treated with IL-6 (which activates Stat3 in both systems) or treated with TNF-α (which activates NF-κB in both). IL-6 led to approximately a five-fold induction of luciferase in the Stat3 reporter system, but induced no change in the NF-κB reporter cells. Conversely, TNF-α induced a 12-fold induction of luciferase in the NF-κB reporter cells, but led to no change in the Stat3-reporter system. The Stat1 and Stat5 reporter systems show similar characteristics. All three cell-based screens are able to reproducibly identify active and specific compounds.
# The compounds that show selective activity in the primary screen (e.g., 25% or more difference in luciferase activity in the presence versus the absence of the compound and less than 12% difference in luciferase activity in the Nf-κB assay in the presence versus the absence of the compound) were then validated in a dose-response assay using the appropriate reporter cell lines.
# [3] = test system: Stat1; assay: Stat1 luciferase reporter cell screen (NIH3T3 cells, IFN-γ stimulated); type: cell-based; conditions: screen for enhancers of Stat1 function
# Protocol: A cell-based assay system for each Stat1, Stat3 and Stat5 was developed to identify compounds that modulate the respective Stat activity. Although the details for each system are slightly different, as described below, the basic principle are the same. […]
# Cells were selected in geneticin (G418) to isolate clones that had stably integrated the plasmid. Individual clones were isolated and luciferase expression was measured by luminometry in the presence and absence of a stimulator of the specific Stat of interest. […]
# All three cell-based screening systems were adapted for use in 384-well plates, which were then used to screen a library of 1120 compounds (the Prestwick Myeloma Collection available from Prestwick Chemical, Illkirch, France). […] After 6 hours, 40 μl of 0.5× Bright-Glo luciferase substrate (diluted in PBS) is added, and luciferase activity is quantitated on a Luminoskan luminometer (Helsinki, Finland). […]
# [4] = test system: endogenous Stat1 genes; assay: Expression of endogenous Stat1 target genes (quantitative real-time PCR); type: cell-based
# Protocol: This is followed by another confirmation assay utilizing quantitative real-time PCR measuring expression of endogenous target genes of each Stat. In this assay the cells are incubated as described above. However, after the incubation the cells are lysed and assessed for increased or decreased expression of target genes specific for the respective Stat molecule, e.g., Stat1, interferon-responsive factor (IRF)-1, GADD45[…], and IFI-16; for Stat3, SOCS3, BCL-6, and KLF-4; and, for Stat5, CIS, PIM-1, and MMP3.
# [5] = test system: MCF-7 breast cancer cells; assay: Growth inhibition by IFN-γ in breast cancer cells; type: cell-based, human; conditions: Stat1-dependent; MCF-7 cells (FIG. 8)
# [6] = test system: Stat1; assay: Mechanistic studies of Stat1 tyrosine phosphorylation; type: cell-based
compound,measurement,setting,value
O=C(N/N=C/c1ccc([N+](=O)[O-])o1)c1ccc(O)cc1 [nifuroxazide],inhibition of Stat3 activity in validation studies,[1],significantly and specifically inhibit Stat3 activity
COc1cccc2c1C(=O)c1c(O)c3c(c(O)c1C2=O)C[C@@](O)(C(C)=O)C[C@@H]3O[C@H]1C[C@H](N)[C@H](O)[C@H](C)O1 [daunorubicin],"Stat3-dependent luciferase activity, primary screen",[1],inhibited both
same,"NF-κB activity, primary screen",[2],inhibited both
CN(C)CCCN1c2ccccc2Sc2ccccc21 [promazine hydrochloride],enhancement of Stat3 function,[1],specifically enhance Stat3 function
solanine alpha,inhibition of Stat3 activity in validation studies,[1],significantly and specifically inhibit Stat3 activity
COC(=O)Nc1nc2ccc(C(=O)c3cccs3)cc2[nH]1 [nocodazole],enhancement of Stat3 function,[1],specifically enhance Stat3 function
O=C1c2c(O)ccc(O)c2C(=O)c2c(NCCNCCO)ccc(NCCNCCO)c21 [mitoxantrone],"Stat3-dependent luciferase activity, primary screen",[1],inhibited both
same,"NF-κB activity, primary screen",[2],inhibited both
N=C(N)N/N=C/c1c(Cl)cccc1Cl [guanabenz acetate],inhibition of Stat3 activity in validation studies,[1],significantly and specifically inhibit Stat3 activity
"Oc1ccccc1-c1ccc2cccnc2n1 [2-(1,8-Naphthyridin-2-yl)phenol]",Stat1 modulator class as named in figure legend,[3],Stat1 activator
same,expression of endogenous Stat1 genes,[4],enhanced
same,growth inhibitory effects of IFN-γ on human breast cancer cell lines,[5],accentuated; also recorded: enhances
same,magnitude and duration of Stat1 tyrosine phosphorylation,[6],increasing
CN(C)C/C=C(/c1ccc(Br)cc1)c1cccnc1 [zimelidine dihydrochloride monohydrate],enhancement of Stat3 function,[1],specifically enhance Stat3 function
CNCCC=C1c2ccccc2CCc2ccccc21 [nortriptyline hydrochloride],enhancement of Stat3 function,[1],specifically enhance Stat3 function
CNCCC(Oc1ccc(C(F)(F)F)cc1)c1ccccc1 (stereo not drawn) [fluoxetine hydrochloride],inhibition of Stat3 activity in validation studies,[1],significantly and specifically inhibit Stat3 activity
"O=S1(=O)CCC(OC2CCS(=O)(=O)C2)C1 (stereo not drawn) [3,3′-oxybis[tetrahydrothiophene, 1,1,1′,1′-tetraoxide]",Stat3 modulator class as named in figure legend,[1],Stat3 inhibitor
COc1cc([C@@H]2c3cc4c(cc3[C@H](O)[C@H]3COC(=O)[C@H]23)OCO4)cc(OC)c1OC [podophyllotoxin],enhancement of Stat3 function,[1],specifically enhance Stat3 function
C=CCc1ccccc1OCC(O)CNC(C)C (stereo not drawn) [alprenolol hydrochloride],inhibition of Stat3 activity in validation studies,[1],significantly and specifically inhibit Stat3 activity
IL-6: cytokine which activates Stat3; specific stimulus of the Stat3 reporter,induction of luciferase in the Stat3 reporter system,[1],five-fold
same,induction of luciferase in the NF-κB reporter cells,[2],no change
Nc1ncnc2c1ncn2[C@@H]1O[C@H](COP(=O)(O)O)[C@@H](O)[C@H]1O.O [adenosine 5′-monophosphate monohydrate],enhancement of Stat3 function,[1],specifically enhance Stat3 function
O=P1(NCCCl)OCCCN1CCCl (stereo not drawn) [ifosfamide],inhibition of Stat3 activity in validation studies,[1],significantly and specifically inhibit Stat3 activity
TNF-α,induction of luciferase in the Stat3 reporter system,[1],no change
same,induction of luciferase in the NF-κB reporter cells,[2],12 fold
NC(=O)c1ncn([C@@H]2O[C@H](CO)[C@@H](O)[C@H]2O)n1 [ribavirin],enhancement of Stat3 function,[1],specifically enhance Stat3 function
CCOC(=O)Nc1ccc2c(c1)N(C(=O)CCN1CCOCC1)c1ccccc1S2 [moricizine hydrochloride],inhibition of Stat3 activity in validation studies,[1],significantly and specifically inhibit Stat3 activity
"CCCN(CCC)C(=O)CC(c1ccccc1)c1ccccc1O (stereo not drawn) [3-(2-hydroxyphenyl)-3-phenyl-N,N-dipropylpropanamide]",inhibition of Stat3 activity in validation studies,[1],significantly and specifically inhibit Stat3 activity
COC(=O)Nc1nc2ccc(C(=O)c3ccccc3)cc2[nH]1 [mebendazole],enhancement of Stat3 function,[1],specifically enhance Stat3 function
deptropine citrate,enhancement of Stat3 function,[1],specifically enhance Stat3 function
CC[N+](C)(CC)CCC[n+]1c(-c2ccccc2)c2cc(N)ccc2c2ccc(N)cc21.[I-].[I-] [propidium iodide],"Stat3-dependent luciferase activity, primary screen",[1],inhibited both
same,"NF-κB activity, primary screen",[2],inhibited both
COc1cccc2c1C(=O)c1c(O)c3c(c(O)c1C2=O)C[C@@](O)(C(=O)CO)C[C@@H]3O[C@H]1C[C@H](N)[C@H](O)[C@H](C)O1 [doxorubicin],"Stat3-dependent luciferase activity, primary screen",[1],inhibited both
same,"NF-κB activity, primary screen",[2],inhibited both
C[C@@H]1C[C@@H]([C@H](O)CC2CC(=O)NC(=O)C2)C(=O)[C@@H](C)C1 [cycloheximide],"Stat3-dependent luciferase activity, primary screen",[1],inhibited both
same,"NF-κB activity, primary screen",[2],inhibited both
